Reference: patent publication US12714685B2, “Drug combination and its use in the treatment of cancer” (priority 2020, dated 2026)
Where two headings read alike, the source gives them in different places.

Key:
[1] = test system: LN-18 cells; assay: In vitro cytotoxicity (LDH release assay) on LN-18 glioma cells; conditions: for IC50: Homo sapiens, LN-18, 24 h
Source text: (§1) Two colorimetric assays were established to monitor cytotoxicity in response to the tested drugs, one measuring the release of lactate dehydrogenase (LDH) from cells, a well-established marker for cell toxicity, and the other measuring the activity of mitochondrial […], an indicator of cell viability, by the reduction of the soluble tetrazolium dye MTT. […] Cells were also monitored by direct microscopic observation. Controls included cells treated with medium without drug and cells treated with Camptothesin, a known cytotoxic agent, as positive control. Incubation with drug concentrations was carried out for 24 hours at 37° C.
(§2) DAB was tested in vitro under ideal conditions in absence of any competing physiological amino acid allowing low concentrations of 0.5, 1, 2, 3, 4, 5, 6, 8, 12, and 16 mM.
(§3) Prazosin was tested at concentrations of 0.1, 0.5, 1, 2, 5, 10, 20, 30 and 50 μM.
DAB was used at concentrations of 1, 2 and 4 mM. Each of these concentrations was tested alone or in combination with 1, 2 or 4 μM of Prazosin, i.e. the combinations tested were the following: • 1 mM DAB+1 μM Prazosin • 1 mM DAB+2 μM Prazosin • 1 mM DAB+4 μM Prazosin • 2 mM DAB+1 μM Prazosin • 2 mM DAB+2 μM Prazosin • 2 mM DAB+4 μM Prazosin • 4 mM DAB+1 μM Prazosin • 4 mM DAB+2 μM Prazosin • 4 mM DAB+4 μM Prazosin

[2] = test system: human glioma cells; conditions: cited from earlier work
[3] = test system: HMC3 cells; assay: In vitro cytotoxicity (LDH release assay) on non-malignant HMC3 cells; assay type: cell-based, human; conditions: 24 hours at 37° C.
Source text: as §1, §2, §3

[4] = Solubility in aqueous media
[5] = two clinical studies, small patient series; cited from earlier work
[6] = test system: glioblastoma; conditions: mouse xenografts; cited from earlier work

| Compound | cytotoxic effect against glioma cell line LN-18 (in words) ([1]; 24 hours at 37° C.) | IC50 ([1]; read-out: IC50, cytotoxic effect against glioma cell line LN-18) [µM] | antitumoral activity in vitro [2] | IC50 against non-malignant HMC3 cells [3] | toxicity towards non-malignant HMC3 cells (in words) [3] | solubility in aqueous media [4] | clinical benefit [5] | cytotoxic effect against glioma cell line LN-18 (in words) [1] | IC50 ([1]; read-out: IC50, cytotoxic effect against glioma LN-18 line) [µM] | glioblastoma growth [6] |
| --- | --- | --- | --- | --- | --- | --- | --- | --- | --- | --- |
| NCC[C@H](N)C(=O)O [DAB, L-2,4 diaminobutyric acid] | strong cytotoxic effect | 3800 | antitumoral activity | no IC50 could be determined | weak toxicity | soluble | failed to demonstrate significant clinical benefit | – | – | – |
| COc1cc2nc(N3CCN(C(=O)c4ccco4)CC3)nc(N)c2cc1OC [Prazosin] | – | – | – | no IC50 could be determined | little cytotoxicity | – | – | strong cytotoxic effect | 3.4 | inhibit glioblastoma growth |
